Test results from patent publication US8093243B2, “Hepatitis C virus inhibitors” (Bristol-Myers Squibb Company, priority 2008, dated 2012).
Read-outs that look alike come from different tables or passages of the source.

Test system: HCV 1b genotype
Experiment: HCV replicon assay (HCV-neo replicon cells)
Assay type: cell-based
Conditions: Hepatitis C virus, HCV 1b genotype replicon
Procedure: An HCV Replion assay was utilized in the present disclosure, and was prepared, conducted and validated as described in commonly owned PCT/US2006/022197 and in O'Boyle et. al. Antimicrot Agents Chemother. 2005 April; 49(4):1346-53.
HCV-neo replicon cells were used to test the currently described compound series as well as cells resistant to compound A containing mutations in NS5A (described in application PCT/US2006/022197). The compounds tested were determined to have more than 10-fold less inhibitory activity on cells containing the mutation than wild-type cells indicating a related mechanism of action between the two compound series. Thus, the compounds of the present disclosure can be effective to inhibit the function of the HCV NS5A protein and are understood to be as effective in combinations as previously described in application PCT/US2006/022197 and commonly owned WO 04/014852. Further, the compounds of the present disclosure can be effective against the HCV 1b genotype. It should also be understood that the compounds of the present disclosure can inhibit multiple genotypes of HCV. […] In one embodiment compounds of the present disclosure are active against the 1a, 1b, 2a, 2b, 3a, 4a, and 5a genotypes. Activity ranges are as follows: A=501 nM-1 μM; B 1-500 nM; C=100-999 pM.

CC(C)(C)OC(=O)N1CCC[C@H]1c1ncc(-c2ccc(-c3ccc4ncnc(Nc5ccc(N6CCOCC6)cc5)c4c3)cc2)[nH]1 [Example 1 step e]
EC50 (activity range class): 1 to 500 nM

c1nc(Nc2ccc(N3CCOCC3)cc2)c2cc(-c3ccc(-c4cnc([C@@H]5CCCN5)[nH]4)cc3)ccc2n1 [Example 1 step f]
EC50 (read-out: EC50 Range/Value): 1510 nM

COC(=O)N[C@H](C(=O)N1CCC[C@H]1c1ncc(-c2ccc(-c3ccc4ncnc(Nc5ccc(N6CCOCC6)cc5)c4c3)cc2)[nH]1)C(C)C [Example 1]
EC50 (activity range class): 1 to 500 nM

CC(=O)N1CCC[C@H]1c1ncc(-c2ccc(-c3ccc4ncnc(Nc5ccc(N6CCOCC6)cc5)c4c3)cc2)[nH]1 [Example 6]
EC50 (activity range class): 501 to 1000 nM
